Results: PubChem BioAssay (NCI)
“And” between values parts separate entries of the source, which are not always exact repeats. Equal values may be shown once.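 Results reflect a 48-hour exposure of cells in 96-well plates to compound at five concentrations. Abbreviation: GI50, concentration required for 50% inhibition of growth. TGI: total growth inhibition.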

Legend:
Test in all cases: growth of human tumour cells (NCI), 48 h
A498 renal = tested on: A498 renal
CCRF-CEM leukemia = tested on: CCRF-CEM leukemia
K-562 leukemia = tested on: K-562 leukemia
KM12 colon = tested on: KM12 colon
LOX IMVI melanoma = tested on: LOX IMVI melanoma
OVCAR-4 ovarian = tested on: OVCAR-4 ovarian
SK-MEL-2 melanoma = tested on: SK-MEL-2 melanoma
SK-MEL-5 melanoma = tested on: SK-MEL-5 melanoma
SR leukemia = tested on: SR leukemia
UACC-257 melanoma = tested on: UACC-257 melanoma
HL-60(TB) leukemia = tested on: HL-60(TB) leukemia

Compound	TGI (A498 renal) [µM]	TGI (CCRF-CEM leukemia) [µM]	TGI (K-562 leukemia) [µM]	TGI (KM12 colon) [µM]	TGI (LOX IMVI melanoma) [µM]	TGI (OVCAR-4 ovarian) [µM]	TGI (SK-MEL-2 melanoma) [µM]	TGI (SK-MEL-5 melanoma) [µM]	TGI (SR leukemia) [µM]	TGI (UACC-257 melanoma) [µM]	TGI (HL-60(TB) leukemia) [µM]	GI50 (HL-60(TB) leukemia)
COc1ccc(N2C(=O)C3c4[nH]c5ccc(F)cc5c4C4CCC(c5ccccc5)CC4C3C2=O)cc1 (centres undefined)	34.3	16.5	14.2	> 100	> 100	32.6	59.6	54.2	36.1	97		
NNC(=O)c1nnn(CCc2ccccc2)c1C(=O)NN		> 100	> 100	> 100	> 100	> 100	> 100	> 100	> 100	> 100	> 100	
N#Cc1c(-c2ccccc2)[nH]c(=O)n(C2OC(CO)C(O)C(O)C2O)c1=O (centres undefined)	> 100	> 100	> 100	> 100		> 100	> 100	> 100		> 100	> 100	47.4 µM and > 100 µM
O=c1[nH]nc(Cc2ccccc2)n1CCO	> 100		> 100	> 100	> 100	> 100	> 100	> 100		> 100		
C=C1C(=O)O[C@@H]2C=C(C)C3=CC(=O)[C@](C)(C[C@H](OC(=O)/C(C)=C\C)[C@@H]12)O3		0.82	2.04	2.99	0.979		6.73	2.03	0.786	8.62	0.563	
COC(=O)[C@H](Cc1c[nH]c2ccccc12)NC(=O)c1ccc(CNC(=O)/C=C/c2cccc(Oc3ccccc3)c2)cc1	> 100	> 100	> 100	> 100		> 100	82.8	> 100	> 100	40.3		
N#Cc1c(-c2ccccc2)c(N=Nc2ccc(Cl)cc2)c(=O)n2c1[nH]c1ccccc12	> 100	> 100		> 100	> 100	85.6	> 100	> 100		> 100		
COc1ccc(N2C=Nn3c(nc4sc5c(c4c3=O)CCCC5)C2)cc1	41.8	> 100	> 100	> 100	> 100	> 100	93.1	> 100	> 100	> 100		
Cc1ccc(/C(O)=C/c2nc3ccccc3s/c2=N/CS(=O)(=O)c2ccc(C)cc2)cc1		> 10	> 10	> 10	> 10	> 10		> 10	> 10	> 10	> 10	
CCOP(=O)(OCC)C(N)c1ccc(Cl)cc1 (centres undefined)	> 100	> 100		> 100	> 100	> 100	> 100	> 100		> 100	> 100	
CC1(C)C2CC(=O)C1(C)C(OCc1ccccc1)C2 (centres undefined)	> 100	92.8	77.6	> 100	68.4		> 100	> 100	81.1	> 100	62.3	
CN(C)CCCn1nc(N)c2nc3cc(Cl)ccc3nc21	> 100	96.5	> 100	> 100	> 100	> 100	> 75.7	41.3	> 100	59.3		
Cc1c2c(OCCN3CCCCC3)nn(C)c(=O)c2c(C)n1-c1ccccc1	36.9	> 100	> 100	> 100	51.1	> 100	33.1	32.1		42.6	> 100	
CC(C)(C)C(=O)OC12/C(=N/O)CCCCCC1c1ccccc12 (centres undefined)	30.5	64	55.4	30.1	28.8	33	37.3	31.7		28.5	45.5	
Cc1ccc(/C=N/Nc2ccc3ccccc3n2)s1		> 100	> 100	> 100	36.5	> 100	> 100	30.7	> 100	> 100	> 100	
COC(C)(C)C1(O)CCC(C)CC1=O (centres undefined)	> 100			> 100		> 100		> 100	> 100	> 100	> 100	
Cc1cc(=O)oc2c(C)c(OCCCOc3ccc4c(C)cc(=O)oc4c3C)ccc12	> 100	> 100	> 100	> 100	> 100		> 100	> 100	> 100	> 100	> 100	
CC(=O)OC[C@@H](OC(C)=O)[C@H](OC(C)=O)[C@@H]1OC(C)(C)O[C@@H]1C1SCCCS1	> 100	> 100	> 100	> 100	> 100	> 100	> 100	> 100	> 100	> 100		
CCNC(=O)c1c(O)c2ccccc2[nH]c1=O	> 100	> 100	> 100	> 100	> 100	> 100		> 100	> 100	> 100	> 100	
Cc1cn([C@@H]2O[C@H](CO[Si](C)(C)C(C)(C)C)[C@]3(O[C@H]3C(=O)NN)[C@H]2O[Si](C)(C)C(C)(C)C)c(=O)[nH]c1=O	30.5	5.43	7.17	32.6	10.7	22.6	17.4	24		27.6	6.09	
O=[N+]([O-])c1cc2c(cc1/C=N/n1c(CO)nc3ccccc31)OCO2	> 100	> 100	> 100	> 100	> 100	> 100	> 100	> 100		> 100	> 100	
O=CC12C3CCC1C2C(=O)C3 (centres undefined)		> 100	> 100	> 100	> 100	> 100	> 100	> 100	> 100	> 100		

Compound	TGI (A498 renal) [µM]	TGI (CCRF-CEM leukemia) [µM]	TGI (K-562 leukemia) [µM]	TGI (KM12 colon) [µM]	TGI (LOX IMVI melanoma) [µM]	TGI (OVCAR-4 ovarian) [µM]	TGI (SK-MEL-2 melanoma) [µM]	TGI (SK-MEL-5 melanoma) [µM]	TGI (SR leukemia) [µM]	TGI (UACC-257 melanoma) [µM]	TGI (HL-60(TB) leukemia) [µM]	GI50 (HL-60(TB) leukemia)
CCOC(=O)/C(C#N)=C/c1ccnc2ccccc12	> 100			> 100	72.1	> 100	> 100	> 100	64.9	> 100		
O=C(Cc1ccccc1)Nn1c(-c2ccccc2)nc2ccccc2c1=O	> 100	> 100	> 100	> 100	> 100	> 100		> 100	> 100	> 100	> 100	
C/C=C/C1OC(O)(C(C)C(O)[C@H](C)C2OC(=O)/C(OC)=C/C(C)=C/[C@@H](C)[C@@H](O)[C@@H](C)C(O)C(C)C/C(C)=C/C=C/C2OC)C[C@@H](OC2CC(O)C(OC(N)=O)C(C)O2)C1C (some centres undefined)	3.68			1.33	< 0.01	18.9	< 0.01	< 0.01		< 0.01		
Oc1ccc(Cl)cc1CN1CCN(Cc2cc(Cl)ccc2O)C1	29.4	> 100	5.86	3.49	4.07	17	4.45	2.22		5.48	7.41	
Cc1csc(/N=C\c2c(O)c3ccccc3oc2=O)n1		> 100	> 100	> 100	> 100	> 100	49.5	> 100		> 100		
O=S(=O)(/N=C(\NO)Nc1ccc(Cl)cc1)c1cccc2nsnc12		71.9	> 100	> 100	61.4	> 100	39.2	29.5		> 100	39.1	
FC1C2=C(SC1(F)F)C1CCC2C1 (centres undefined)			> 100	> 100	> 100	> 100	> 100	> 100	> 100	> 100	> 100	
COc1ccc(C2SCC(=O)N2NC(=O)c2ccc(NC(C)=O)cc2)cc1 (centres undefined)	> 100		> 100	> 100		> 100	> 100	> 100		> 100		
CC(=O)OC1COC(Nc2nc(NCc3ccccc3)n(C)c(=O)c2N=O)C(OC(C)=O)C1OC(C)=O (centres undefined)	> 10	> 10	> 10	> 10	> 10	> 10	> 10	> 10		> 10	> 10	
CC(C)C1=CC23CCC4C(C)(C(=O)O)CCCC4(C)C2CC1C1C(=O)N(c2ccccc2)C(=O)C13 (centres undefined)		> 100	> 100	> 100	> 100	> 100	73.3	> 100	> 100	84.2	> 100	
O=c1c(=O)c2c(Br)sc(Br)c2c1=O	> 100		51	> 100	36.4	31.2	41.1	31.8	44.2	36.5		
O=C(N/N=C(/COc1ccc([N+](=O)[O-])cc1)N=Cc1ccncc1)c1ccncc1	> 100	> 100	> 100	> 100	> 100	> 100	> 100			> 100	> 100	
CC(C)C(/C=C/c1ccc(Cl)c(Cl)c1)=N\NC(=O)N/N=C(/C=C/c1ccc(Cl)c(Cl)c1)C(C)C	> 100	> 100	> 100	> 100	> 100	> 100		> 100	> 100	> 100	> 100	
COc1cc2cc(C(=O)N3CC(CCl)c4c3cc(N)c3ccccc43)[nH]c2c(OC)c1OC (centres undefined)	< 0.01	< 0.01	< 0.01	0.0207	0.0103	< 0.045	< 0.01		< 0.01			
O=C(O)Cc1ccc2[nH]c(O)c(C3=Nc4ccccc4C3=O)c2c1	98.7	> 100	> 100	> 100	> 100	> 100	> 100	55.6	93	> 100		
O=C(NCc1cccc2ccccc12)N/N=C\c1ccc(Cl)cc1		> 100	> 100	> 100	> 100	> 100	> 100	> 100	> 100	> 100	> 100	
O=C(CNc1ccccc1[N+](=O)[O-])Nn1c(-c2ccccc2)nc2ccccc2c1=O	81.1	43.6	41.9	> 10	24.7	32.1		22.1	71.7	> 10	> 100	
O=C1OC(=O)c2cc(S(=O)(=O)c3ccc4c(c3)C(=O)OC4=O)ccc21		> 100	> 100	> 100	> 100	> 100	> 100	> 100		> 100		
Cc1ccc2nc(-c3ccc(N4C(=O)C(Cl)C4c4ccc(Cl)cc4)cc3)sc2c1 (centres undefined)		36.7	60.2	> 100	18.7	8.38		28.2	57.9	47.7	> 100	
CC(=O)OCC1OC(Oc2cc(C)c(O)cc2C/C=C(\C)CC/C=C(\C)CC(=O)CC(C)C)C(O)C(OC(C)=O)C1OC(C)=O (centres undefined)	27.6	22.3	23.2	29.4	32.7	> 50	26.6	14.9		31.7	23.4	
CCOC(=O)C(NC(=O)c1ccccc1)(N1CCOCC1)C(F)(F)F (centres undefined)		> 100	> 100	> 100	> 100	> 100	> 100	> 100	> 100	> 100	> 100	
